Results from US9278953B2, “Antagonists of prostaglandin EP3 receptor” (Pfizer Inc., priority 2013, dated 2016).

Target: human EP3 receptor (Homo sapiens (Human), UniProt P43115)
Experiment: EP3 Radioligand SPA Binding Assay
Conditions: [3H]-PGE2 displacement, Millipore EP3 Chem1 membranes; geometric mean Ki, calculated from IC50 by Cheng-Prusoff
Method: EP3 Radioligand SPA Binding Assay
Compound affinity was expressed as a […], defined as the concentration of compound required to decrease [^3H] PGE2 binding by 50% for a specific membrane batch at a given concentration of radioligand.
Test compounds were half log serially diluted in 100% DMSO (J. T. Baker #922401). 1 μL of each compound was added to appropriate wells of a 384-well plate (Matrix Cat #4322). Unlabeled PGE2 (Tocris Cat #2296) at a final concentration of 1 μM was used to determine non-specific binding. 1 μL of 100% DMSO (J. T. Baker #922401) was used to determine total binding. Millipore EP3 Chem1 membranes (prepared in-house from cell paste derived from the Millipore ChemiSCREEN™ Human Recombinant EP3 Prostanoid Receptor Calcium-Optimized Stable Cell Line (Millipore Cat #HTS092C. http://www.millipore.com/catalogue/item/hts092c)) were thawed and diluted in binding buffer (50 mM Hepes pH 7.4 (Lonza Cat #17-737), 5 mM MgCl2 (Sigma-M1028), and 0.1% BSA (Sigma A-7409)) to a final concentration of 1 μg/25 μL. 25 μL of diluted membranes were added to prepared compound plates. WGA coated PVT SPA Beads (Perkin Elmer Cat #RPNQ0060) were diluted in binding buffer to a concentration of 4 μg/ul, and 25 μL of the SPA bead mixture was then added to each well for a final assay concentration of 100 μg/well. [^3H]-PGE2 (Perkin Elmer Cat #NET428) was diluted in binding buffer to a concentration of […], and 25 μL was added to all wells for a final assay concentration of 1.125 nM. Plates were incubated for 30 minutes at r.t. (approximately 25° C.) with shaking. Radioactivity associated with each well was measured after a 10 hour incubation using a Wallac Trilux MicroBeta plate-based scintillation counter and a normalized protocol at 1 minute read/well. The Kd for [^3H]-PGE2 was determined by carrying out saturation binding, with data analysis by non-linear regression, fit to a one-site hyperbola (Graph Pad Prism). IC50 determinations were made from competition curves, analyzed with a proprietary curve fitting program (SIGHTS) and a 4-parameter logistic dose response equation. Ki values were calculated from IC50 values, using the Cheng-Prusoff equation.
Results are reported as geometric mean Ki values.

Chain of human EP3 receptor (P43115 whole entry): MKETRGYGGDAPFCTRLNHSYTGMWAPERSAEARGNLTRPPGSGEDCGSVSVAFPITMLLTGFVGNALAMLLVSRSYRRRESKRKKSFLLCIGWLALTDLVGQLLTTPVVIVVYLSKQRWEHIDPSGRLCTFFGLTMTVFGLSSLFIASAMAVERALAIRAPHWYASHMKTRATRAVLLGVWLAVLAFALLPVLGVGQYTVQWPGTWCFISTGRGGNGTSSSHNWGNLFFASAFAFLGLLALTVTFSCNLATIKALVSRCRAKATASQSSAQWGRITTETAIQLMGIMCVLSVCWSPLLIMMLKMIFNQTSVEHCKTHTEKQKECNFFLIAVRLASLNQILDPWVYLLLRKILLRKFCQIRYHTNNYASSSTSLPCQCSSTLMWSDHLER

Row | Compound | Ki
1 | CCn1ccc2ccc(-c3ccc([C@@]4(C)CCNC4=O)c(=O)[nH]3)cc21 [Example 10, (R)-6-(1-ethyl-1H-indol-6-yl)-3-(3-methyl-2-oxopyrrolidin-3-yl)pyridin-2(1H)-one] | 19.9 nM
2 | CCn1ncc2c(F)cc(-c3ccc([C@@]4(C)CCCNC4=O)c(=O)[nH]3)cc21 [Example 1, (R)-6-(1-ethyl-4-fluoro-1H-indazol-6-yl)-3-(3-methyl-2-oxopiperidin-3-yl)pyridin-2(1H)-one] | 2 nM
3 | Cn1ccc2cc(-c3ccc([C@@]4(C)CCCNC4=O)c(=O)[nH]3)ccc21 [Example 5, (R)-6-(1-methyl-1H-indol-5-yl)-3-(3-methyl-2-oxopiperidin-3-yl)pyridin-2(1H)-one] | 12.2 nM
4 | Cc1cc(-c2ccc([C@@]3(C)CCCNC3=O)c(=O)[nH]2)cc2c1cnn2C [Example 12, (R)-6-(1,4-dimethyl-1H-indazol-6-yl)-3-(3-methyl-2-oxopiperidin-3-yl)pyridin-2(1H)-one] | 25 nM
5 | C[C@]1(c2ccc(-c3cc(F)c4[nH]nc(C5CC5)c4c3)[nH]c2=O)CCCNC1=O [Example 14, (R)-6-(3-cyclopropyl-7-fluoro-1H-indazol-5-yl)-3-(3-methyl-2-oxopiperidin-3-yl)pyridin-2(1H)-one] | 29.2 nM
6 | Cn1ccc2ccc(-c3ccc([C@@]4(C)CCCNC4=O)c(=O)[nH]3)cc21 [Example 4, (R)-6-(1-methyl-1H-indol-6-yl)-3-(3-methyl-2-oxopiperidin-3-yl)pyridin-2(1H)-one] | 11.2 nM
7 | Cn1ncc2c(Cl)cc(-c3ccc([C@@]4(C)CCCNC4=O)c(=O)[nH]3)cc21 [Example 2, (R)-6-(4-chloro-1-methyl-1H-indazol-6-yl)-3-(3-methyl-2-oxopiperidin-3-yl)pyridin-2(1H)-one] | 3.6 nM
8 | Cn1ccc2cc(-c3ccc([C@@]4(C)CCNC4=O)c(=O)[nH]3)cc(F)c21 [Example 9, (R)-6-(7-fluoro-1-methyl-1H-indol-5-yl)-3-(3-methyl-2-oxopyrrolidin-3-yl)pyridin-2(1H)-one] | 11.9 nM
9 | Cn1ccc2cc(-c3ccc([C@@]4(C)CCNC4=O)c(=O)[nH]3)ccc21 [Example 6, (R)-6-(1-methyl-1H-indol-5-yl)-3-(3-methyl-2-oxopyrrolidin-3-yl)pyridin-2(1H)-one] | 46 nM
10 | Cn1cnc2cc(-c3ccc([C@@]4(C)CCCNC4=O)c(=O)[nH]3)cc(Cl)c21 [Example 7, (R)-6-(7-chloro-1-methyl-1H-benzo[d]imidazol-5-yl)-3-(3-methyl-2-oxopiperidin-3-yl)pyridin-2(1H)-one] | 7.8 nM
11 | CCn1ncc2c(C)cc(-c3ccc([C@@]4(C)CCCNC4=O)c(=O)[nH]3)cc21 [Example 3, (R)-6-(1-ethyl-4-methyl-1H-indazol-6-yl)-3-(3-methyl-2-oxopiperidin-3-yl)pyridin-2(1H)-one] | 9.5 nM
12 | Cn1ncc2c(Cl)cc(-c3ccc([C@@]4(C)CCNC4=O)c(=O)[nH]3)cc21 [Example 8, (R)-6-(4-chloro-1-methyl-1H-indazol-6-yl)-3-(3-methyl-2-oxopyrrolidin-3-yl)pyridin-2(1H)-one] | 14.2 nM
